Test results from publication PMC8228234, “Identifying a Novel Bile Salt Hydrolase from the Keystone Gut Bacterium Christensenella minuta” (Microorganisms, 2021).

Biological target: T1, Cm33407BSH (Christensenella minuta, UniProt A0A8F5DVT9)
T1 construct: gene BSH
Experiment: ninhydrin assay of released amino acid
Format: biochemical
Conditions: citrate buffer pH 6.0, 37 °C, 10 mM DTT, 5 mM substrate

T1 sequence (A0A8F5DVT9 entry or part of it): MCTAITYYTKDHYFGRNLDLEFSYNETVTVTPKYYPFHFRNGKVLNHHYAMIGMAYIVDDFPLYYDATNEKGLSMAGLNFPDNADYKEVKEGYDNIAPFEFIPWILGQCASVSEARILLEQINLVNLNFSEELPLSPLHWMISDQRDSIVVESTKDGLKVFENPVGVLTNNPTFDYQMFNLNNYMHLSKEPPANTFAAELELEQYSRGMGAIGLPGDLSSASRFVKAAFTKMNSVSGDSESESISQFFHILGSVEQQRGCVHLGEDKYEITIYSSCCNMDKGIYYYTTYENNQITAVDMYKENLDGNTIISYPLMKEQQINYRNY

Row | SMILES | specific activity
1 | C[C@H](CCC(=O)NCC(=O)O)[C@H]1CC[C@H]2[C@@H]3[C@H](O)C[C@@H]4C[C@H](O)CC[C@]4(C)[C@H]3C[C@H](O)[C@]12C [GCA] | displayed high specific activity values for the glycine conjugates GCA and GCDCA
2 | C[C@H](CCC(=O)NCC(=O)O)[C@H]1CC[C@H]2[C@@H]3[C@H](O)C[C@@H]4C[C@H](O)CC[C@]4(C)[C@H]3CC[C@]12C [GCDCA] | displayed high specific activity values for the glycine conjugates GCA and GCDCA
